Row | melting point [°C] | SMILES
1 | 133 to 135 | COc1ccc(-c2nc(CNC(=O)c3ccc4n3Cc3ccccc3N(C(=O)c3ccc(-c5ccccc5C)c(C)c3)C4)no2)cc1
2 | 149 | Cc1cc(C(C#N)=CN(C)C)cc(C)n1
3 | 88 to 89 | CC(C)(C)OC(=O)N1CCc2ccc(Nc3nc4c(-c5cc(C(F)(F)F)ccc5Cl)cccn4n3)cc2CC1
4 | 80 | CNC(=S)NS(=O)(=O)c1cc(CCNC(=O)C=Cc2cccs2)ccc1OCC1CCCCO1 (stereo not given)
5 | 240 | O=C(NC(=S)Nc1ccc(Cl)c(Cl)c1)c1c(Cl)cccc1Cl
6 | 129 | O=C(O)c1nc(SCc2ccccc2)ccc1SCc1ccccc1
7 | 141 to 143 | COc1ccc(C(CCCCC(=O)O)C2=CC(=O)c3ccccc3C2=O)cc1 (stereo not given)
8 | 96.3 to 98.3 | NC(=O)Nc1ccc(O)cc1
9 | 58 to 60 | COC(=O)c1ccc(OCC=O)cc1
10 | 122 to 124 | COC(=O)c1ccc(OC)c2c1OCO2
11 | 81 to 83 | CC(=O)OCC1OC(n2cc(C(Cl)=CI)c(=O)[nH]c2=O)CC1OC(C)=O (stereo not given)
12 | 142 | Cc1cccc(C(=O)Nc2nc(C(Cl)(Cl)Cl)ns2)c1
13 | 218 | CC(=O)NC(=Cc1cccs1)C1=NC(=Cc2cccs2)C(=O)O1
14 | 102 to 109 | Cc1noc(NS(=O)(=O)c2ccccc2-c2ccc(-c3ncco3)cc2/C=C/c2ccccc2)c1C
15 | 211 to 212 | Clc1ccc2c(c1)C(c1ccccc1Cl)NCc1c[nH]cc1-2 (stereo not given)
16 | 259 | O=C(Cc1ccc(O)cc1)c1c(O)cc(O)cc1O
17 | 178 | O=c1nc(-c2ccnc(Cl)c2)sc2ccccc12

Continued, molecule first:

Row | SMILES | melting point [°C]
18 | Cc1cccc(NC(=O)NCc2ccc(-c3n[nH]c4c3Cc3cc(CN5CCOCC5)ccc3-4)s2)c1 | 158 to 161
19 | CCOC(=O)c1ccc(NC(=O)c2sc3ccc(OC)cc3c2OC(C)C)nc1 | 131 to 133
20 | CCCCc1oc2ccc(C(=O)OC)cc2c1C(=O)c1ccc(O)cc1 | 152 to 153
21 | O=[N+]([O-])c1cccnc1N1CCNCC1 | 79 to 82
22 | O=c1[nH]c2cc(Cl)c(Cl)cc2n1CCCBr | 198
23 | Cc1oc(-c2ccccc2)nc1COc1ccc(COc2ccc3ccccc3c2C=O)cc1 | 141 to 142
24 | Cc1cc2c(cc1C)N(C)C(=O)c1cccnc1N2 | 206 to 209
25 | O=C(O)C1=CSC2C(=Cc3cc4c(s3)CCSC4)C(=O)N12 (stereo not given) | > 250
26 | CC(=O)CC(=O)NC1CCC(C)CC1 (stereo not given) | 111
27 | CC(C)(C)c1ccccc1N1CCN(C(=O)c2ncoc2CCC(=O)O)CC1 | 180 to 181
28 | Cc1ccc2c(C(=O)C(F)(F)F)c[nH]c2c1 | 216 to 218
29 | C=C(CC1(CC)C(=O)CCC1=O)C1=CCCc2cc(OC)ccc21 | 100 to 125
30 | Cc1cc(S(N)(=O)=O)ccc1NC(=O)CCl | 193 to 194
31 | Cc1cc(C#C[Si](C(C)C)(C(C)C)C(C)C)n(-c2ccc([N+](=O)[O-])cc2)n1 | 71 to 73
32 | CC(C)(C)c1cc2c(c(-c3nc4ncccc4o3)c1)CCC2 | 198 to 200
33 | O=C1c2ccccc2-n2cnc(-c3nc(CCl)cs3)c2[C@@H]2CCN12 | 248 to 249
34 | O=C1N(C(c2ccccc2)c2ccccc2)c2c(F)cccc2C12COc1cc3c(cc12)CCO3 (stereo not given) | 183 to 184
35 | CC(C)=NOCc1nc2c(N)nc(C)c(C)c2n1CCCCN(C(N)=O)C1CCCCC1 | 210 to 212
36 | O=C1Cc2ccccc2C=Cc2cc(Br)ccc21 | 121 to 123
37 | O=c1c(Cl)nsnc1Oc1cccnc1 | 134 to 136
38 | Nc1nc2[nH]c(CCC#Cc3ccc(C(=O)N[C@@H](CCC(=O)O)C(=O)O)o3)cc2c(=O)[nH]1 | 193 to 194
39 | Nc1nc2cc(-c3ccc(C=C4SC(=O)NC4=O)cn3)cc(C34CC5CC(CC(C5)C3)C4)c2o1 | > 360
40 | CC(=O)c1ccc(Cl)c2c1OC(F)(F)O2 | 40

— a melting point compilation (Tetko et al.; mined from patent text by program, amines drawn as free bases though some values may be those of a salt)
